US9062289B2, “Differentiation of primate pluripotent stem cells to cardiomyocyte-lineage cells” (Asterias Biotherapeutics, Inc., priority 2005, dated 2015)

System: primate pluripotent stem cell-derived cardiomyocytes
Test: Contractile activity of primate pluripotent stem cell-derived cardiomyocytes
Format: cell-based
Details: spontaneous periodic contractions in culture
Description: Under appropriate circumstances, primate pluripotent stem cell-derived cardiomyocytes often show spontaneous periodic contractile activity. This means that when they are cultured in a suitable tissue culture environment with an appropriate Ca^++ concentration and electrolyte balance, the cells can be observed to contract across one axis of the cell, and then release from contraction, without having to add any additional components to the culture medium. The contractions are periodic, which means that they repeat on a regular or irregular basis, at a frequency between ˜6 and 200 contractions per minute, and often between ˜20 and ˜90 contractions per minute in normal buffer (FIG. 2). Individual cells may show spontaneous periodic contractile activity on their own, or they may show spontaneous periodic contractile activity in concert with neighboring cells in a tissue, cell aggregate, or cultured cell mass.
The contractile activity of the cells can be characterized according to the influence of culture conditions on the nature and frequency of contractions. Compounds that reduce available Ca^++ concentration or otherwise interfere with transmembrane transport of Ca^++ often affect contractile activity. […] Further characterization of functional properties of the cell can involve characterizing channels for Na^+, K^+, and Ca^++. Electrophysiology can be studied by patch clamp analysis for cardiomyocyte like action potentials. See Igelmund et al., Pflugers Arch. 437:669, 1999; Wobus et al., Ann. N.Y. Acad. Sci. 27:752, 1995; and Doevendans et al., J. Mol. Cell Cardiol. 32:839, 2000.

SMILES: COc1ccc([C@@H]2Sc3ccccc3N(CCN(C)C)C(=O)[C@@H]2OC(C)=O)cc1 [diltiazem]
- contractile activity: inhibits contractile activity in a dose-dependent manner

SMILES: CC(C)NCC(O)c1ccc(O)c(O)c1 (stereo not drawn) [isoprenaline]
- chronotropic effect: positive chronotropic effect

SMILES: CNC[C@H](O)c1cccc(O)c1 [phenylephrine]
- chronotropic effect: positive chronotropic effect
